This note sets out measurements from PubChem BioAssay (NCI).

Some test systems named below: 786-0 renal; A498 renal; BT-549 breast; HT29 colon; IGROV1 ovarian; K-562 leukemia; MDA-MB-231 breast; NCI-H522 lung; OVCAR-4 ovarian; SF-295 CNS; SN12C renal; SNB-75 CNS; SR leukemia; SW-620 colon; MDA-N; SK-MEL-2 melanoma.
What all share (experiment): growth of human tumour cells (NCI), 48 h

Molecules are shown by their SMILES.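 Cultured in 96-well plates, cells were exposed to test compound for 48 hours across five concentrations. TGI: concentration producing complete growth inhibition.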 Bounds are passed on as bounds.

Regarding `O=[N+]([O-])c1cc(Cl)cc2cc(Cl)cnc12`, the TGI with 786-0 renal is above 100 µM; in the assay with A498 renal, above 100 µM; in the assay with BT-549 breast, above 100 µM; in the assay on HT29 colon, above 100 µM; in the assay with IGROV1 ovarian, 66.8 µM; with K-562 leukemia it was above 100 µM. Further, the TGI was above 100 µM in the assay with MDA-MB-231 breast; above 100 µM in the assay on NCI-H522 lung; above 100 µM in the assay with OVCAR-4 ovarian; above 100 µM in the assay on SF-295 CNS; above 100 µM in the assay with SN12C renal; 98 µM in the assay on SNB-75 CNS. In addition, the TGI in the assay on SR leukemia and in the assay on SW-620 colon was above 100 µM throughout.

For the compound `Cc1cccc(-c2cc(=S)c3cc(N4CCCC4)ccc3[nH]2)c1`, the TGI in the assay with 786-0 renal, in the assay with A498 renal, in the assay on K-562 leukemia, in the assay with MDA-MB-231 breast, in the assay with MDA-N and in the assay on OVCAR-4 ovarian was above 100 µM each time. Further, the TGI in the assay with SF-295 CNS, with SK-MEL-2 melanoma, in the assay on SN12C renal, in the assay on SNB-75 CNS and in the assay with SW-620 colon was above 100 µM throughout.

Regarding `Cc1[nH]c(=O)nc(NCCNCCO)c1C(=O)Nc1c2ccccc2nc2ccccc12`, the TGI in the assay with 786-0 renal, in the assay on A498 renal, in the assay with HT29 colon, with IGROV1 ovarian, in the assay on K-562 leukemia and in the assay on MDA-MB-231 breast was above 100 µM throughout. For the same compound, the TGI in the assay on MDA-N, in the assay with NCI-H522 lung, in the assay with OVCAR-4 ovarian, in the assay with SF-295 CNS, in the assay with SK-MEL-2 melanoma and with SN12C renal was above 100 µM each time. For the same compound, the TGI with SNB-75 CNS and in the assay with SW-620 colon was above 100 µM throughout.

For the compound `CC(C)NCC(O)c1ccc(OCc2ccccc2)c(OCc2ccccc2)c1-c1ccccc1` (configuration not stated), the TGI in the assay on 786-0 renal stood at 3.25 µM; in the assay on A498 renal it was 11.6 µM; in the assay on HT29 colon, 3.04 µM; in the assay on IGROV1 ovarian, 2.71 µM; with MDA-MB-231 breast, 3.16 µM; in the assay with MDA-N it was 3.1 µM. For the same compound, the TGI in the assay with NCI-H522 lung worked out at 3.16 µM; in the assay with OVCAR-4 ovarian, 3.79 µM; in the assay with SF-295 CNS, 3.55 µM; in the assay with SK-MEL-2 melanoma, 4.18 µM; with SN12C renal, 3.13 µM; in the assay with SNB-75 CNS, 2.54 µM. In the assay with SW-620 colon, this compound returned a TGI of 3.13 µM.

`COC(=O)[C@]1(C)CCC[C@@]2(C)C1CCC1=CC3(C(C)C)CCC12OO3` (some centres not stated): the TGI with 786-0 renal, in the assay on A498 renal, in the assay with HT29 colon, in the assay with IGROV1 ovarian, in the assay on K-562 leukemia and in the assay with NCI-H522 lung was above 100 µM throughout. Besides, the TGI with OVCAR-4 ovarian, in the assay with SF-295 CNS, in the assay on SK-MEL-2 melanoma, with SN12C renal, in the assay on SR leukemia and with SW-620 colon was above 100 µM in each case.

As for `COc1ccc2c(c1)OC[C@@H]1c3cc4c(cc3O[C@H]21)OCO4`, the TGI in the assay with 786-0 renal, in the assay with A498 renal, with HT29 colon, in the assay on K-562 leukemia, with NCI-H522 lung and with OVCAR-4 ovarian was above 100 µM in each case. For the same compound, the TGI in the assay on SF-295 CNS is above 100 µM; in the assay on SK-MEL-2 melanoma, above 100 µM; with SNB-75 CNS, 69.2 µM; in the assay on SW-620 colon, above 100 µM.

With `CCOP(=O)(C=C=C(C)C)OCC`, the TGI in the assay with 786-0 renal, with A498 renal, in the assay on HT29 colon, with IGROV1 ovarian, in the assay with K-562 leukemia and in the assay with MDA-N was above 100 µM each time. The TGI in the assay on NCI-H522 lung, in the assay with OVCAR-4 ovarian, in the assay with SF-295 CNS, with SK-MEL-2 melanoma, in the assay on SN12C renal and in the assay on SNB-75 CNS was above 100 µM each time. Besides, the TGI with SR leukemia and in the assay on SW-620 colon was above 100 µM throughout.

On to `N#CC(c1cc2c(cc1Br)OCO2)N1CCOCC1` (configuration not stated), for which the TGI with 786-0 renal is above 100 µM; in the assay with HT29 colon, above 100 µM; in the assay on IGROV1 ovarian it was above 100 µM; with K-562 leukemia it was 57.1 µM; in the assay on MDA-MB-231 breast it was above 100 µM; in the assay on MDA-N it was above 100 µM. Further, the TGI with NCI-H522 lung was above 100 µM; in the assay with OVCAR-4 ovarian it was above 100 µM; in the assay with SF-295 CNS, above 100 µM; in the assay on SN12C renal, above 100 µM; in the assay on SNB-75 CNS, 99.6 µM; in the assay with SR leukemia, 60.3 µM. In the assay with SW-620 colon, this compound had a TGI above 100 µM.

On to `Cc1n[nH]c(=O)n1/N=C/c1c[nH]c2ccccc12`, for which the TGI in the assay on 786-0 renal, with A498 renal, with BT-549 breast, with IGROV1 ovarian, in the assay on K-562 leukemia and in the assay on MDA-MB-231 breast was above 100 µM in each case. Moreover, the TGI in the assay with NCI-H522 lung, with OVCAR-4 ovarian, with SF-295 CNS, with SK-MEL-2 melanoma, in the assay on SN12C renal and in the assay on SNB-75 CNS was above 100 µM throughout. Moreover, the TGI in the assay on SR leukemia and in the assay on SW-620 colon was above 100 µM in each case.

Turning to `COP1(=O)Oc2ccccc2C(=O)C(C(F)(F)F)(C(F)(F)F)O1` (configuration not stated), the TGI in the assay with 786-0 renal, in the assay on A498 renal, in the assay with HT29 colon, with IGROV1 ovarian, in the assay on K-562 leukemia and in the assay on NCI-H522 lung was above 100 µM throughout. The TGI with OVCAR-4 ovarian, in the assay on SF-295 CNS, in the assay with SK-MEL-2 melanoma, in the assay on SN12C renal, in the assay on SNB-75 CNS and in the assay on SR leukemia was above 100 µM each time. Also, in the assay on SW-620 colon, the TGI was above 100 µM.

In the case of `CC(C)OP(=O)(OC(C)C)C(=Nc1ccccc1)NNc1ccc([N+](=O)[O-])cc1`, the TGI with 786-0 renal was 83.3 µM; with K-562 leukemia, above 100 µM; in the assay with NCI-H522 lung, 58 µM; with OVCAR-4 ovarian, above 100 µM; with SK-MEL-2 melanoma, above 100 µM; in the assay with SN12C renal, above 100 µM. Moreover, the TGI with SNB-75 CNS was above 100 µM; in the assay on SR leukemia, 43.4 µM; in the assay on SW-620 colon, above 100 µM.
